Source: ChEMBL document CHEMBL1135040, “[(3)H]-M-MPEP, a potent, subtype-selective radioligand for the metabotropic glutamate receptor subtype 5” (Bioorg Med Chem Lett, 2002)

Columns and labels:
[1] = biological target: T1, Metabotropic glutamate receptor 5 (Homo sapiens, UniProt P41594); test: In vitro for inhibitory activity of compound against recombinant Metabotropic glutamate receptor 5 evaluated as inhibition of quisqualate-stimulated phosphoinositide (PI) hydrolysis; assay type: functional
[2] = biological target: T1, Metabotropic glutamate receptor 5; test: Tested in vitro binding affinity for displacement of [3H]M-MPEP from membrane of L(-tk) cells expressing the Metabotropic glutamate receptor 5, activity expressed as IC50

T1 sequence (P41594 whole entry): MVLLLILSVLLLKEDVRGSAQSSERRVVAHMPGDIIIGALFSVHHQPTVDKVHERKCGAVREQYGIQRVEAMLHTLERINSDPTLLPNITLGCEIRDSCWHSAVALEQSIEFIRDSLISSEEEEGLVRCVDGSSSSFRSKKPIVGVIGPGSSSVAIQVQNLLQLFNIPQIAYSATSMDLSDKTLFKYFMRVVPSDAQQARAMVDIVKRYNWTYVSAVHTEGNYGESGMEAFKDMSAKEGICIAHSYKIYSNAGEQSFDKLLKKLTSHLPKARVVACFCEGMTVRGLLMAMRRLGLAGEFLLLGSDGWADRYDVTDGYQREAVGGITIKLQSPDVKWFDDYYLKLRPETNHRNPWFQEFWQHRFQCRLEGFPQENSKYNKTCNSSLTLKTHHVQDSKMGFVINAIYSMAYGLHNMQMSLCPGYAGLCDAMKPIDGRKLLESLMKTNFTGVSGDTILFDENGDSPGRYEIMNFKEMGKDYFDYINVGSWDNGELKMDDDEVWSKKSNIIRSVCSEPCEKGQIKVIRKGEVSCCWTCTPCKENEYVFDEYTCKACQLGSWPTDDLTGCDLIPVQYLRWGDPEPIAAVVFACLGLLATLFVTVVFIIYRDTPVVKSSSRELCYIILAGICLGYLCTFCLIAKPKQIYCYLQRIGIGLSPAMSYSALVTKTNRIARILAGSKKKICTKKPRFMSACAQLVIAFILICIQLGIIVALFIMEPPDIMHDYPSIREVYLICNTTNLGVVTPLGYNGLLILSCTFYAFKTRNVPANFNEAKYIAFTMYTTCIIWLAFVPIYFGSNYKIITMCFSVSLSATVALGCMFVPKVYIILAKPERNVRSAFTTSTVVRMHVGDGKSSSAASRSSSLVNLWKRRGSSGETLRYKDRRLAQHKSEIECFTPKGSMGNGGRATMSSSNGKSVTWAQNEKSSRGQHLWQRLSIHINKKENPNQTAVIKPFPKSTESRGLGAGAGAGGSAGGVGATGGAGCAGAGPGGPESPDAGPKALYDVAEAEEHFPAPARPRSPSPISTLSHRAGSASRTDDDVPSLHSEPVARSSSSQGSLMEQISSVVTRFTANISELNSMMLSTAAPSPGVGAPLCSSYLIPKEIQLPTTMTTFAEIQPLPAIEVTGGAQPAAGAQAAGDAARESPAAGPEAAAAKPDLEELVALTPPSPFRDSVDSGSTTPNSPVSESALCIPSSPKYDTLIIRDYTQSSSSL

Row | IC50 [1] [nM] | IC50 [2] [nM] | SMILES
1 | 3000 | 1100 | Cc1cccc(/C=C/c2ccccc2)n1
2 | 10 | 3.6 | [3H]C([3H])([3H])OCc1cccc(C#Cc2cccc(C)n2)c1
